Reference: patent publication US20210137990A1, “METHODS FOR EXP ANDING ADIPOSE-DERIVED STEM CELLS” (CELLECT BIOTHERAPEUTICS LTD., priority 2018, published 2021)
Entries after “also recorded” stand apart in the source; their conditions may differ. Residues, ends and D or L forms follow the SMILES beside them. *: point of attachment. Cbz = O=C(OCc1ccccc1)*; CH2F = FC*

How the values were obtained:
ASCs [1] = assay: ASC proliferation with Fas-L and inhibitors for 4 days, cell counts; format: cell-based, human
Text: (§1) The dual effect of Fas-L on the apoptosis and proliferation of ASCs, can be mediated solely by canonical Fas-L signaling or through two distinct pathways. To distinguish between these possibilities, ASCs were either left untreated, treated with Fas-L only or treated simultaneously with Fas-L and with the pan-caspase inhibitor […], for 4 days. Importantly, to better evaluate the apoptotic cue of Fas-L, a different Fas-L derivative (mega-Fas-L), which induces high rates of apoptosis in passage 3 ASCs, was used in the current experiments. Sub-G1 proportions and cell numbers were determined by PI cell-cycle flow cytometry analysis and standard cell counts respectively. The experiment was repeated 3 times using cells from 3 independent patients.
Accordingly, cultured Passage 2-4 ASCs were treated with a combination of mega Fas-L, Z-VAD-fmk, LY294002 (PI3K inhibitor), AZD6244 (ERK-1/2 inhibitor) and SP600125 (JNK inhibitor) for 4 days.
After 4 days, cells were removed from plates by trypsin and cells were counted using a standard cell counter. The experiment was repeated 3 times using cells from 3 independent patients.
To test the effects of inhibitors on proliferation of mature ASCs (P2 and P3 ASCs), cells were seeded into 24-well plates (10.000 cells/well) and allowed to attach and grow for 24 h. Then, medium was exchanged for fresh normal growth medium or growth medium supplemented with Fas-L or with Fas-L and one of the inhibitors. Cells were then cultured for 4 days.
At the end of the incubation period, adherent cells were trypsinized, collected and counted with a TC10 Automated Cell Counter (Bio-rad).

ASCs [2] = assay: ASC apoptosis with Fas-L and inhibitors for 4 days, sub-G1 by PI cell-cycle flow cytometry; format: cell-based, human; conditions: Z-VAD-fmk added to mega-Fas-L
Text: as §1
Cells were harvested and fixed with 70% ethanol/PBS, treated with RNaseA 0.4 mg/ml (Sigma) and stained with propidium iodide (PI) 0.1 mg/ml (Sigma).
All labeled cells were analyzed using a FACS Canto II flow cytometer (Becton Dickinson, San Jose, Calif., USA). At least 10.000 events were recorded. Data analysis was performed using the FlowJo software (Tree Star, Ashland, Oreg., USA).

Question: How did the “ASC counts compared to cells treated with Fas-L only” value (ASCs [1]; P2-4 ASCs, mega Fas-L plus inhibitor, 4 days) turn out when `Cn1cnc2c(F)c(Nc3ccc(Br)cc3Cl)c(C(=O)NOCCO)cc21` [AZD6244] was run?
Answer: The value was “reduced ASC counts”.

Question: And the cell quantities (ASCs [1]; P2-4 ASCs, mega Fas-L, Z-VAD-fmk plus inhibitor, 4 days)?
Answer: The cell quantities was “comparable to untreated control”.

Question: And the “Fas-L-dependent proliferation of ASCs” value (ASCs [1]; inhibitor added to Fas-L)?
Answer: Its value is “could be inhibited”.

Question: Which cell yield (ASCs [1]; Fas-L and Z-VAD-fmk together, 4 days, vs untreated) does the source give for `COC(=O)C[C@H](NC(=O)[C@H](C)NC(=O)[C@@H](NC(=O)OCc1ccccc1)C(C)C)C(=O)CF` [Z-VAD-fmk] (Cbz-Val-Ala-Asp(OMe)-CH2F) here?
Answer: Its cell yield is “doubled cell yield”.

Question: And the “Fas-L-induced ASC proliferation” value (ASCs [1]; Z-VAD-fmk added to mega-Fas-L, 4 days)?
Answer: The value was “not affected; also recorded: without impacting; also recorded: minor to negligible effect”.

Question: And the cell expansion (ASCs [1]; Z-VAD-fmk only, 4 days)?
Answer: Its cell expansion is “No such increased expansion”.

Question: What about the “Fas-L-induced apoptosis of ASCs (sub-G1)” value (ASCs [2]) of the same compound?
Answer: Its value is “considerably attenuated; also recorded: near-complete inhibition”.
